Source: patent publication US11162129B2, “Photoprotective mixtures as imaging reagents in sequencing-by-synthesis” (IsoPlexis Corporation, priority 2016, dated 2021)

Excerpt: Components in various photoprotective imaging mixtures as described herein have been tested for solubility and stability against precipitation and discoloration in imaging solution formulation using […] as the base buffer.

Structure (SMILES) | optimal concentration window in imaging solution formulation
CCOC(=O)c1ccc(O)c(O)c1 [3,4-Dihydroxybenzoic Acid Ethyl Ester, 3,4-dihydroxybenzoic acid ethyl ester] | 10 to 20 mM
C[N+](C)(C)CC(O)CC(=O)[O-] (stereo not drawn) [Carnitine, carnitine] | 5 to 50 mM
Cc1c(C)c2c(c(C)c1O)CCC(C)(C(=O)O)O2 (stereo not drawn) [Trolox, 6-hydroxy-2,5,7,8-tetramethylchromane-2-carboxylic acid] | 5 to 15 mM
